Results as given in patent US9162992B2, “Compounds and compositions for treatment of breathing control disorders or diseases” (GALLEON PHARMACEUTICALS, INC., priority 2010, dated 2015).

Tests used:
[1] = tested on: hypoxic ventilatory response; test: Hypoxic ventilatory response (HVR) in the rat, plethysmography; assay type: in vivo; details: 0.03 mg/kg/min infusion 50 min; 12% O2 for 20 min; vs vehicle
Description: Rats with a pre-cannulated jugular vein (for administering drugs) were acclimated to plethysmography chambers for a minimum of 60 minutes, or until animals were no longer restless. Each animal was dosed with compound (XXXVI), labeled as cmpd (A), at 0.03 mg/kg/min via infusion into the jugular vein catheter for a period of 50 minutes. After a period of 20 minutes, an isocapnic hypoxic mixture (12% O2 balanced N2) was administered into all chambers using a gas mixer (CWE inc. GSM-3 gas mixer) for 20 minutes. After this time, the gas mixer was turned off, resulting in normal room air pumped into the chambers. Ten minutes later, the infusion pumps were turned off, and all animals were given a 20 minute recovery period, followed by a post-study analysis of rat health and behavior. […] Results are illustrated in FIG. 3.

[2] = tested on: morphine-induced respiratory depression; test: Opioid-induced respiratory depression in the rat, plethysmography (minute ventilation); assay type: in vivo; details: morphine sulfate 10 mg/kg IV; infusion 0.10 then 0.30 mg/kg/min, 20 min each; vs vehicle
Description: Rats with pre-cannulated jugular vein (for administering drugs) were acclimated to plethysmography chambers for a minimum of 60 minutes, or until animals were no longer restless. Each animal was dosed with morphine sulfate (10 mg/kg), dissolved in sterile water at a concentration of 10 mg/mL (supplied by Baxter Healthcare Corporation), via injection into the jugular vein catheter over a period of 5-10 seconds.
Compound (XXXVI) was dissolved in 20% hydroxypropyl β-cyclodextran (20% bcd on graph) at a concentration of 0.45 mg/mL at pH 5. After a period of 5 min, compound (XXXVI), labeled as cmpd (A), was administered via infusion into the jugular vein at a dose of 0.10 mg/kg/min for 20 min and then at a dose of […] for 20 min (e.g., 20 μL/min/0.3 kg rat to yield […]).
After 20 minutes of infusion at this dose, the infusion pumps were turned off, and all animals were given a 20 minute recovery period, followed by a post-study analysis of rat health and behavior. […] Results are illustrated in FIG. 1.

SMILES: CCCNc1nc(NCCC)nc(N(C)OC)n1.O=S(=O)(O)O [XXXVI, N-(4,6-Bis-n-propylamino-[1,3,5]triazin-2-yl)-N,O-dimethyl-hydroxylamine hydrogen sulfate]
- minute ventilation, hypoxic ventilatory response [1]: significantly potentiates the hypoxic ventilatory response
- minute ventilation, reversal of opioid-induced respiratory depression [2]: significantly reversed opioid-induced respiratory depression
